Results on three molecules are retold here after patent US20130149399A1, “SKIN TEMPERATURE ELEVATING AGENT, AND COSMETIC COMPOSITION, FOOD AND SUNDRY ARTICLE CONTAINING THE SAME” (SHISEIDO COMPANY ,LTD., priority 2010, published 2013).

Each structure is given as a SMILES string.

The assay is described as follows: Test method of measuring skin temperature when smelling the aroma of the test sample. To be noted: females in their 20's, aroma smelled from soaked cotton, chest skin temperature as reference, 25 °C, humidity 45%; for effect of the aroma on the skin temperature of the cheek (change level with aroma minus change level with no aroma): samples 0.05-0.1 mass % in triethyl citrate or ethanol, FIG. 1. The format is in vivo, human. Here is the method:
The present invention will be explained below in more detail with reference to examples. Test samples were prepared which were a dilution of an extract of Japanese peppermint by triethyl citrate to a concentration of 0.05 mass %, a dilution of an extract of juniper berry by triethyl citrate to a concentration of 0.1 mass %, a dilution of an extract of […] by triethyl citrate to a concentration of 0.05 mass %, a dilution of dihydro-β-ionol by ethanol to a concentration of 0.1 mass %, a dilution of geraniol by ethanol to a concentration of 0.1 mass %, and a dilution of 4-methoxystyrene by ethanol to a concentration of 0.5 mass %, and how the aromas of those test samples influenced a skin temperature was tested. In this example, test subjects were females in their 20's. Five test subjects for the extract of Japanese peppermint, seven test subjects for the extract of juniper berry, three test subjects for the extract of […] test subjects for dihydro-β-ionol, five test subjects for geraniol, and seven test subjects for 4-methoxystyrene participated in the tests. The test content was explained in advance to the test subjects, and the participation in the test was agreed in writing. The tests were carried out in a room at a constant temperature set to 25 ° C. and a constant humidity set to 45%. Skin temperature sensors were attached to a cheek of the test subject, a hand fingertip (middle finger), and a chest, and connected to a temperature monitor to successively measure the skin temperature. […] Skin temperature change levels of a cheek and those of a hand fingertip between when an aroma was smelled and when no aroma was smelled were compared with each other, and an effect of the aroma of the test sample to the skin temperature was evaluated. […] When this value is a positive one, it is determined that a skin temperature is raised and when this value is a negative one, it is determined that a skin temperature is lowered.

Turning to `C=Cc1ccc(OC)cc1` [4-methoxystyrene], the “effect of the aroma on the skin temperature of the hand fingertip (change level with aroma minus change level with no aroma)” value (middle finger, samples 0.05-0.5 mass % in triethyl citrate or ethanol, FIG. 2) is “effect of raising the skin temperature of the hand fingertip”.
For the molecule `CC1=C(CCC(C)O)C(C)(C)CCC1` (stereo not drawn) [dihydro-β-ionol, Dihydro-β-ionol], the “effect of the aroma on the skin temperature of the cheek (change level with aroma minus change level with no aroma)” value is on record as “effect of raising the skin temperature of the cheek”.
Regarding `CC(C)=CCC/C(C)=C/CO` [geraniol, Geraniol], the “effect of the aroma on the skin temperature of the cheek (change level with aroma minus change level with no aroma)” value is “effect of raising the skin temperature of the cheek”.
